Values quoted from earlier work as cited in patent US20160300010A1, “METHOD AND SYSTEM FOR PREDICTING SELECTIVE CANCER DRUG TARGETS” (RAMOT AT TEL-AVIV UNIVERSITY LTD., priority 2011, published 2016).

Test system: human cancer cells
Conditions: previously shown

SMILES: NC(Cn1ccc(=O)c(O)c1)C(=O)O (stereo not shown) [Mimosine]
- effect on proliferation of human cancer cells: inhibit proliferation of human cancer cells
